According to patent US20090247579A1, “2-[3H-THIAZOL-2-YLIDINEMETHYL]PYRIDINES AND RELATED COMPOUNDS AND THEIR USE” (CANCER RESEARCH TECHNOLOGY LIMITED, priority 2006, published 2009):
Where “and” joins values, the source holds several entries; their conditions need not be identical. Equal values may be shown once. Read-outs that look alike come from different tables or passages of the source.

Tests used:
[1] = test system: A2780; assay: Modified MTT assay, A2780 (parental, MMR proficient); format: cell-based, human
Experimental: (§1) Relative drug sensitivities (Resistance Factor) and IC50 values were determined by a modified MTT assay (see, e.g., Mosmann, 1983; Plumb et al., 1989), as described below: • (1) Trypsinise a sub-confluent monolayer culture and collect cells in growth medium containing serum. Centrifuge the suspension (200 g, 5 minutes) to pellet cells, re-suspend in growth medium, and count cells. Dilute cells to a density of 5×10^3 cells/mL allowing 60 mL of cell suspension for 3 microtitre plates. Transfer cell suspension to a 10 cm petri dish, and with a multichannel pipette add 200 μL to each well of the central 10 columns of a flat bottomed 96-well plate (80 wells per plate) starting with column 2 and ending with column 11. Add 200 μL of growth medium to the 8 wells in columns 1 and 12. Put the plates in a plastic box and incubate in a humidified atmosphere at 37° C. for 2-3 days so that cells are in the exponential phase of growth for drug addition. • (2) Prepare a serial 5-fold dilution of the cytotoxic drug in growth medium to give 8 concentrations. Pipette 6 mL of growth medium in to each of 7 universal containers (30 mL). Prepare 10 mL of the highest concentration of the drug and transfer 1.5 mL of this solution to the first universal container. Mix and then transfer 1.5 mL to the next universal container. Continue until the seventh universal container is reached. The concentrations should be chosen so that the highest concentration kills most of the cells and the lowest kills none of the cells. Normally, three plates are used for each drug to give triplicate determinations within one experiment. • (3) The medium is removed from all the wells in columns 2 to 11. This can be achieved with a hypodermic needle attached to a suction line. Cells in the 8 wells in columns 2 and 11 are fed with 200 μL of fresh growth medium. The drug solutions are transferred to 10 cm petri dishes and 200 μL added to all 8 wells of a column. For ease of analysis arrange the drug solutions in order so that the highest is in column 3 down to the lowest in column 10. Plates are returned to the plastic box and incubated for 24 hours. • (4) At the end of the drug exposure period, the medium is removed from all wells containing cells and the cells are fed with 200 μL of fresh medium. • (5) The plates are fed daily for two more days. • (6) The plates are fed with 200 μL of fresh medium and 50 μL of the MTT solution (5 mg/mL in PBS) is added to all wells in columns 1 to 11. Plates are wrapped in aluminium foil and incubated for 4 hours in a humidified atmosphere at 37° C. • (7) The medium and MTT are then removed from the wells and the purple MTT-formazan crystals dissolved by addition of 200 μL of DMSO to all wells in columns 1 to 11. Glycine buffer is added (25 μL per well) to all wells containing DMSO. • (8) Absorbance is recorded at 570 nm with the wells in column 1, which contained medium and MTT but no cells used as a blank. • (9) A graph is plotted of absorbance (y-axis) against drug concentration (x-axis). The mean absorbance reading from the wells in columns 2 and 11 is used as the control absorbance and the IC50 concentration is determined as the drug concentration required to reduce the absorbance to half that of the control. IC10 or IC90 values can be determined in the same manner.
(§2) A2780/cp70 and A2780/mcp1 have lost expression of MLH1, have lost MMR activity, and have microsatellite instability compared to A2780. The CpG island at the MLH1 gene is methylated in A2780/cp70 and A2780/mcp1, but not A2780.
(§3) IC50 values (μM) for A2780, A2780/cp70, and A2780/mcp1 and Resistance Factors (RF) (the fold difference in resistance from parental A2780) were determined based on the MTT assay described above for several compounds of the present invention (including, e.g., MMR201).

[2] = test system: A2780/mcp1; assay: Modified MTT assay, A2780/mcp1 (cisplatin resistant, MMR deficient); format: cell-based, human; conditions: 24 hour drug exposure; for IC50: MTT; for A2780/mcp1 RF (Resistance Factor): fold difference in resistance from parental A2780
Experimental: as §1, §2, §3

[3] = test system: A1 (MLH1+ve, MMR proficient); assay: Modified MTT assay, A1 line (A2780/cp70 + chromosome 3, MLH1 +ve); format: cell-based, human
Experimental: as §1
A1, E1, and A2 are derived by transfer of human chromosome 3 into A2780/cp70. MLH1 is located on chromosome 3.
IC50 values (μM) for A1 (MLH1+ve, MMR proficient) or E1 (MLH1+ve, MMR proficient) and A2 (MLH1−ve, MMR deficient) lines and Resistance Factors (RF) (the fold difference in resistance between the A2 line, MMR deficient, and the A1 line, MMR proficient) were determined based on the MTT assay described above for several compounds of the present invention (including, e.g., MMR201). Compounds showing increased activity against the MLH1 deficient A2 line compared to the MLH1 proficient A1 or E1 line have RF values less than 1.

[4] = test system: HT29; assay: Modified MTT assay, colon panel HT29; format: cell-based
Experimental: (§4) Relative drug sensitivities (Resistance Factor) and IC50 values were determined by a modified MTT assay (see, e.g., Mosmann, 1983; Plumb et al., 1989), as described below: • (1) Trypsinise a sub-confluent monolayer culture and collect cells in growth medium containing serum. Centrifuge the suspension (200 g, 5 minutes) to pellet cells, re-suspend in growth medium, and count cells. Dilute cells to a density of 5×10^3 cells/mL allowing 60 mL of cell suspension for 3 microtitre plates. Transfer cell suspension to a 10 cm petri dish, and with a multichannel pipette add 200 μL to each well of the central 10 columns of a flat bottomed 96-well plate (80 wells per plate) starting with column 2 and ending with column 11. Add 200 μL of growth medium to the 8 wells in columns 1 and 12. […] Glycine buffer is added (25 μL per well) to all wells containing DMSO. • (8) Absorbance is recorded at 570 nm with the wells in column 1, which contained medium and MTT but no cells used as a blank. • (9) A graph is plotted of absorbance (y-axis) against drug concentration (x-axis). The mean absorbance reading from the wells in columns 2 and 11 is used as the control absorbance and the IC50 concentration is determined as the drug concentration required to reduce the absorbance to half that of the control. IC10 or IC90 values can be determined in the same manner. […]

[5] = test system: HCT116 (MLH1); assay: Modified MTT assay, colon panel HCT116; format: cell-based, human
Experimental: as §4

[6] = test system: SW48 (MLH1); assay: Modified MTT assay, colon panel SW48; format: cell-based
Experimental: as §4

[7] = test system: OVCAR3; assay: Cancer cell line panel, OVCAR3 (ovary); format: cell-based
Experimental: as §4

[8] = test system: OVCAR4; assay: Cancer cell line panel, OVCAR4 (ovary); format: cell-based
Experimental: as §4

[9] = test system: A549; assay: Cancer cell line panel, A549 (NSCLC); format: cell-based
Experimental: as §4

[10] = test system: H125; assay: Cancer cell line panel, H125 (NSCLC); format: cell-based
Experimental: as §4

[11] = test system: WIL; assay: Cancer cell line panel, WIL (NSCLC); format: cell-based
Experimental: as §4

[12] = test system: SKMES; assay: Cancer cell line panel, SKMES (NSCLC); format: cell-based
Experimental: as §4

[13] = test system: HS852; assay: Cancer cell line panel, HS852 (melanoma); format: cell-based
Experimental: as §4

[14] = test system: HS294; assay: Cancer cell line panel, HS294 (melanoma); format: cell-based
Experimental: as §4

[15] = test system: A375; assay: Cancer cell line panel, A375 (melanoma); format: cell-based
Experimental: as §4

[16] = test system: C8161; assay: Cancer cell line panel, C8161 (melanoma); format: cell-based
Experimental: as §4

[17] = test system: PC3; assay: Cancer cell line panel, PC3 (prostate); format: cell-based
Experimental: as §4

[18] = read-out: Cisplatin IC50, MMR deficient, p53 wt

With `N.N.[Cl][Pt][Cl]` [Cisplatin, reference compound] the IC50 ([1]; 24 hour drug exposure) was 215 nM and 244 nM, the IC50 [2] was 547 nM and 672 nM and the “A2780/mcp1 RF (Resistance Factor)” value [2] was 2.5 and 2.8. It also gave an IC50 ([3]; read-out: A1 or E1 MLH1 +ve MMR proficient IC50) of 715 ± 69 nM, an IC50 ([4]; read-out: Cisplatin IC50, MMR proficient, p53 mut) of 5670 ± 640 nM and an IC50 [5, 18] of 2130 ± 30 nM. For the same molecule, the IC50 [6, 18] was 1820 ± 70 nM, the IC50 ([7]; read-out: Cisplatin) was 239 ± 20 nM and the IC50 ([8]; read-out: Cisplatin) was 1640 ± 150 nM. The IC50 ([9]; read-out: Cisplatin) was 1130 ± 40 nM, the IC50 ([10]; read-out: Cisplatin) was 3690 ± 430 nM and the IC50 ([11]; read-out: Cisplatin) was 3940 ± 220 nM. It also gave an IC50 ([12]; read-out: Cisplatin) of 5160 ± 80 nM, an IC50 ([13]; read-out: Cisplatin) of 1600 ± 90 nM and an IC50 ([14]; read-out: Cisplatin) of 1490 ± 80 nM. For the same molecule, the IC50 ([15]; read-out: Cisplatin) was 613 ± 51 nM, the IC50 ([16]; read-out: Cisplatin) was 3460 ± 160 nM and the IC50 ([17]; read-out: Cisplatin) was 2270 ± 270 nM.

With `CC[n+]1c(/C=C2\Sc3oc4ccccc4c3N2C)ccc2cc(C)ccc21.[I-]` [MMR201] the IC50 ([1]; Homo sapiens, A2780, 24 hour drug exposure) was 58 ± 5 nM, the IC50 ([2]; Homo sapiens, A2780/mcp1) was 14 ± 1 nM and the “A2780/mcp1 RF (Resistance Factor)” value [2] was 0.24. The IC50 ([3]; Homo sapiens, A2780/CP70, read-out: A1 or E1 MLH1 +ve MMR proficient IC50) was 121 ± 18 nM, the IC50 ([4]; Homo sapiens, HT-29, MMR proficient, p53 mut, read-out: MMR201 IC50) was 118 ± 9.1 nM and the IC50 ([5]; Homo sapiens, HCT-116, MMR deficient, p53 wt, read-out: MMR201 IC50) was 37.9 ± 3.1 nM. The IC50 ([6]; Homo sapiens, MMR deficient, p53 wt, read-out: MMR201 IC50) was 76.9 ± 7.3 nM, the IC50 ([7]; Homo sapiens, OVCAR-3, read-out: MMR201) was 253 ± 22 nM and the IC50 ([8]; Homo sapiens, OVCAR-4, read-out: MMR201) was 733 ± 41.2 nM. For the same molecule, the IC50 ([9]; Homo sapiens, read-out: MMR201) was 119 ± 10.6 nM, the IC50 ([10]; Homo sapiens, NCI-H125, read-out: MMR201) was 130 ± 15 nM and the IC50 ([11]; read-out: MMR201) was 153 ± 13.7 nM. The IC50 ([12]; read-out: MMR201) was 398 ± 61.9 nM, the IC50 ([13]; read-out: MMR201) was 75.3 ± 7.1 nM and the IC50 ([14]; read-out: MMR201) was 105 ± 5.1 nM. It also gave an IC50 ([15]; Homo sapiens, A-375, read-out: MMR201) of 118 ± 17.7 nM, an IC50 ([16]; Homo sapiens, read-out: MMR201) of 254.2 ± 0.4 nM and an IC50 ([17]; Homo sapiens, PC-3, read-out: MMR201) of 531 ± 50.3 nM.
